US20250333424A1, “ANTIVIRAL COMPOUNDS” (Gilead Sciences, Inc., priority 2024, published 2025)

System: monocytic THP1 cells infected with HIV VSV-G pseudotyped GFP-NEF reporter virus
Test: cells
Format: cell-based
Conditions: Human immunodeficiency virus 1, THP-1, 24 h

SMILES | EC50
Cc1cc(/C=C/C#N)cc(C)c1Oc1nc(NC23CC(C#N)(C2)C3(F)F)nc2nc3n(c12)CCCO3 [Compound 188, (E)-3-((4-(4-(2-cyanovinyl)-2,6-dimethylphenoxy)-7,8-dihydro-6H-[1,3]oxazino[2,3-f]purin-2-yl)amino)-2,2-difluorobicyclo[1.1.1]pentane-1-carbonitrile] | 70.4 nM
Cc1cc(/C=C/C#N)cc(C)c1Oc1nc(NC23CC(C#N)(C2)C3)nc2nc3n(c12)CC(F)(F)CO3 [Compound 189, (E)-3-((4-(4-(2-cyanovinyl)-2,6-dimethylphenoxy)-7,7-difluoro-7,8-dihydro-6H-[1,3]oxazino[2,3-f]purin-2-yl)amino)bicyclo[1.1.1]pentane-1-carbonitrile] | 109 nM
Cc1cc(/C=C/C#N)cc(C)c1Oc1nc(NC23CC(C#N)(C2)C3)nc2[nH]c(=O)n(C(F)F)c12 [Compound 190, (E)-3-((6-(4-(2-cyanovinyl)-2,6-dimethylphenoxy)-7-(difluoromethyl)-8-oxo-8,9-dihydro-7H-purin-2-yl)amino)bicyclo[1.1.1]pentane-1-carbonitrile] | 329 nM
Cc1cc(/C=C/C#N)cc(C)c1Oc1nc(NC23CC(C#N)(C2)C3)nc2nc3n(c12)CCOC3 [Compound 195, (E)-3-((4-(4-(2-cyanovinyl)-2,6-dimethylphenoxy)-6,7-dihydro-9H-[1,4]oxazino[3,4-f]purin-2-yl)amino)bicyclo[1.1.1]pentane-1-carbonitrile] | 37 nM
Cc1cc(/C=C/C#N)cc(C)c1Oc1nc(NC23CC(C#N)(C2)C3)nc2nc3n(c12)CCC3 [Compound 196, (E)-3-((4-(4-(2-cyanovinyl)-2,6-dimethylphenoxy)-7,8-dihydro-6H-pyrrolo[2,1-f]purin-2-yl)amino)bicyclo[1.1.1]pentane-1-carbonitrile] | 24.6 nM
Cc1cc(/C=C/C#N)cc(C)c1Oc1nc(NC23CC(C#N)(C2)C3)nc2c1C1(C)OCC(C)(C)CN1C2=O (stereo not shown) [Compound 197, (E)-3-((4-(4-(2-cyanovinyl)-2,6-dimethylphenoxy)-4b,7,7-trimethyl-10-oxo-4b,7,8,10-tetrahydro-6H-pyrimido[5′,4′:3,4]pyrrolo[2,1-b][1,3]oxazin-2-yl)amino)bicyclo[1.1.1]pentane-1-carbonitrile] | 97.3 nM
Cc1cc(/C=C/C#N)cc(C)c1Oc1nc(NC23CC(C#N)(C2)C3)nc2c1C1(C)O[C@@H](CO)CN1C2=O (stereo partly drawn) [Compound 264, 3-(((6R)-4-(4-((E)-2-cyanovinyl)-2,6-dimethylphenoxy)-6-(hydroxymethyl)-4b-methyl-9-oxo-4b,6,7,9-tetrahydrooxazolo[3′,2′:1,5]pyrrolo[3,4-d]pyrimidin-2-yl)amino)bicyclo[1.1.1]pentane-1-carbonitrile] | 118 nM
Cc1cc(/C=C/C#N)cc(C)c1Oc1nc(NC23CC(C#N)(C2)C3)nc2c1C(O)(CF)NC2=O (stereo not shown) [Compound 265, (E)-3-((4-(4-(2-cyanovinyl)-2,6-dimethylphenoxy)-5-(fluoromethyl)-5-hydroxy-7-oxo-6,7-dihydro-5H-pyrrolo[3,4-d]pyrimidin-2-yl)amino)bicyclo[1.1.1]pentane-1-carbonitrile] | 86.4 nM
Cc1cc(/C=C/C#N)cc(C)c1Oc1nc(NC23CC(C#N)(C2)C3)nc2c1/C(=C/F)NC2=O [Compound 266, 3-(((Z)-4-(4-((E)-2-cyanovinyl)-2,6-dimethylphenoxy)-5-(fluoromethylene)-7-oxo-6,7-dihydro-5H-pyrrolo[3,4-d]pyrimidin-2-yl)amino)bicyclo[1.1.1]pentane-1-carbonitrile] | 61 nM
Cc1cc(/C=C/C#N)cc(C)c1Oc1nc(NC23CC(C#N)(C2)C3)nc2c1C(O)(CF)N(C1CC1)C2=O (stereo not shown) [Compound 267, (E)-3-((4-(4-(2-cyanovinyl)-2,6-dimethylphenoxy)-6-cyclopropyl-5-(fluoromethyl)-5-hydroxy-7-oxo-6,7-dihydro-5H-pyrrolo[3,4-d]pyrimidin-2-yl)amino)bicyclo[1.1.1]pentane-1-carbonitrile] | 80.3 nM
Cc1cc(/C=C/C#N)cc(C)c1Oc1nc(NC23CC(C#N)(C2)C3)nc2c1/C(=C/F)N(C1CC1)C2=O [Compound 268, 3-(((Z)-4-(4-((E)-2-cyanovinyl)-2,6-dimethylphenoxy)-6-cyclopropyl-5-(fluoromethylene)-7-oxo-6,7-dihydro-5H-pyrrolo[3,4-d]pyrimidin-2-yl)amino)bicyclo[1.1.1]pentane-1-carbonitrile] | 173 nM
C=C1c2c(Oc3c(C)cc(/C=C/C#N)cc3C)nc(NC34CC(C#N)(C3)C4)nc2C(=O)N1[C@H]1CC[C@@H](O)C1 [Compound 269, 3-((4-(4-((E)-2-cyanovinyl)-2,6-dimethylphenoxy)-6-((1S,3R)-3-hydroxycyclopentyl)-5-methylene-7-oxo-6,7-dihydro-5H-pyrrolo[3,4-d]pyrimidin-2-yl)amino)bicyclo[1.1.1]pentane-1-carbonitrile] | 57.3 nM
C=C1c2c(Oc3c(C)cc(/C=C/C#N)cc3C)nc(NC34CC(C#N)(C3)C4)nc2C(=O)N1CCCCO [Compound 270, (E)-3-((4-(4-(2-cyanovinyl)-2,6-dimethylphenoxy)-6-(4-hydroxybutyl)-5-methylene-7-oxo-6,7-dihydro-5H-pyrrolo[3,4-d]pyrimidin-2-yl)amino)bicyclo[1.1.1]pentane-1-carbonitrile] | 19 nM
Cc1cc(/C=C/C#N)cc(C)c1Oc1nc(NC23CC(C#N)(C2)C3)nc2c1C1(C)OCC[C@H](C)N1C2=O (stereo partly drawn) [Compound 271, 3-(((8S)-4-(4-((E)-2-cyanovinyl)-2,6-dimethylphenoxy)-4b,8-dimethyl-10-oxo-4b,7,8,10-tetrahydro-6H-pyrimido[5′,4′:3,4]pyrrolo[2,1-b][1,3]oxazin-2-yl)amino)bicyclo[11.1.1]pentane-1-carbonitrile] | 52 nM
Cc1cc(/C=C/C#N)cc(C)c1Oc1nc(NC23CC(C#N)(C2)C3)nc2c1C1(C)OCC[C@@H](C)N1C2=O (stereo partly drawn) [Compound 272, 3-(((8R)-4-(4-((E)-2-cyanovinyl)-2,6-dimethylphenoxy)-4b,8-dimethyl-10-oxo-4b,7,8,10-tetrahydro-6H-pyrimido[5′,4′:3,4]pyrrolo[2,1-b][1,3]oxazin-2-yl)amino)bicyclo[1.1.1]pentane-1-carbonitrile] | 68.3 nM
Cc1cc(/C=C/C#N)cc(C)c1Oc1nc(NC23CC(C#N)(C2)C3)nc2c1C1(C)OCCN1C2=O (stereo not shown) [Compound 273, (E)-3-((4-(4-(2-cyanovinyl)-2,6-dimethylphenoxy)-4b-methyl-9-oxo-4b,6,7,9-tetrahydrooxazolo[3′,2′:1,5]pyrrolo[3,4-d]pyrimidin-2-yl)amino)bicyclo[1.1.1]pentane-1-carbonitrile] | 16 nM
Cc1cc(/C=C/C#N)cc(C)c1Oc1nc(NC23CC(C#N)(C2)C3)nc2c1nc1n2CC2(CC2)CO1 [Compound 274, (E)-3-((4′-(4-(2-cyanovinyl)-2,6-dimethylphenoxy)-7′H,9′H-spiro[cyclopropane-1,8′-[1,3]oxazino[3,2-e]purin]-2′-yl)amino)bicyclo[1.1.1]pentane-1-carbonitrile] | 111 nM
Cc1cc(/C=C/C#N)cc(C)c1C(=O)c1nc(NC23CC(C#N)(C2)C3)nc2nn(C)cc12 [Compound 275, (E)-3-((4-(4-(2-cyanovinyl)-2,6-dimethylbenzoyl)-2-methyl-2H-pyrazolo[3,4-d]pyrimidin-6-yl)amino)bicyclo[1.1.1]pentane-1-carbonitrile] | 113 nM
Cc1cc(/C=C/C#N)cc(C)c1C(O)c1nc(NC23CC(C#N)(C2)C3)nc2nn(C)cc12 (stereo not shown) [Compound 276, (E)-3-((4-((4-(2-cyanovinyl)-2,6-dimethylphenyl)(hydroxy)methyl)-2-methyl-2H-pyrazolo[3,4-d]pyrimidin-6-yl)amino)bicyclo[1.1.1]pentane-1-carbonitrile] | 194 nM
Cc1cc(/C=C/C#N)cc(C)c1Cc1nc(NC23CC(C#N)(C2)C3)nc2nn(C)cc12 [Compound 277, (E)-3-((4-(4-(2-cyanovinyl)-2,6-dimethylbenzyl)-2-methyl-2H-pyrazolo[3,4-d]pyrimidin-6-yl)amino)bicyclo[1.1.1]pentane-1-carbonitrile] | 49.9 nM
Cc1cc(/C=C/C#N)cc(C)c1Oc1nc(NC23CC(C#N)(C2)C3)nc2c1[C@@H]1OCCCN1C2=O [Compound 279, (S,E)-3-((4-(4-(2-cyanovinyl)-2,6-dimethylphenoxy)-10-oxo-4b,7,8,10-tetrahydro-6H-pyrimido[5′,4′:3,4]pyrrolo[2,1-b][1,3]oxazin-2-yl)amino)bicyclo[1.1.1]pentane-1-carbonitrile] | 57.2 nM
Cc1cc(/C=C/C#N)cc(C)c1Oc1nc(NC23CC(C#N)(C2)C3)nc2c1[C@H]1OCCCN1C2=O [Compound 280, (R,E)-3-((4-(4-(2-cyanovinyl)-2,6-dimethylphenoxy)-10-oxo-4b,7,8,10-tetrahydro-6H-pyrimido[5′,4′:3,4]pyrrolo[2,1-b][1,3]oxazin-2-yl)amino)bicyclo[1.1.1]pentane-1-carbonitrile] | 33.7 nM
Cc1cc(/C=C/C#N)cc(C)c1Oc1nc(NC23CC(C#N)(C2)C3)nc2c1C(O)NC2=O (stereo not shown) [Compound 286, (E)-3-((4-(4-(2-cyanovinyl)-2,6-dimethylphenoxy)-5-hydroxy-7-oxo-6,7-dihydro-5H-pyrrolo[3,4-d]pyrimidin-2-yl)amino)bicyclo[1.1.1]pentane-1-carbonitrile] | 72.4 nM
COC1NC(=O)c2nc(NC34CC(C#N)(C3)C4)nc(Oc3c(C)cc(/C=C/C#N)cc3C)c21 (stereo not shown) [Compound 287, (E)-3-((4-(4-(2-cyanovinyl)-2,6-dimethylphenoxy)-5-methoxy-7-oxo-6,7-dihydro-5H-pyrrolo[3,4-d]pyrimidin-2-yl)amino)bicyclo[1.1.1]pentane-1-carbonitrile] | 26.2 nM
CCOC1NC(=O)c2nc(NC34CC(C#N)(C3)C4)nc(Oc3c(C)cc(/C=C/C#N)cc3C)c21 (stereo not shown) [Compound 288, (E)-3-((4-(4-(2-cyanovinyl)-2,6-dimethylphenoxy)-5-ethoxy-7-oxo-6,7-dihydro-5H-pyrrolo[3,4-d]pyrimidin-2-yl)amino)bicyclo[1.1.1]pentane-1-carbonitrile] | 29.8 nM
